In patent US10683293B2, “Optionally fused heterocyclyl-substituted derivatives of pyrimidine useful for the treatment of inflammatory, metabolic, oncologic and autoimmune diseases” (NUEVOLUTION A/S, priority 2014, dated 2020):

Assays:
[1] = molecular target: T1, human RORγt (Ligand Binding Domain) (Homo sapiens, UniProt P51449); assay: Fluorescence Polarization (FP) Assay; settings: 100 nM human RORγt LBD, 25 nM TAMRA probe, values are activity range bounds
T1 construct: purchased Crelux (Planegg, Germany) batch no PC5032-1
T1 sequence (P51449 269-508 limits assumed): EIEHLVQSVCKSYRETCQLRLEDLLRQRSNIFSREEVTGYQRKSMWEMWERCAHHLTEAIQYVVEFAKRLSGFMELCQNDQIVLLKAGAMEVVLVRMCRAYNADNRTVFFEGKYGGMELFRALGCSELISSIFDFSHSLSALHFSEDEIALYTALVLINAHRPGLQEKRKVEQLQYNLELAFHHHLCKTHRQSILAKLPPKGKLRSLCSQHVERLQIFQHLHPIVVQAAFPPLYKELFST
Description: (§1) The activity of the compounds was evaluated using a Fluorescence Polarization (FP) Assay and, RORγ Reporter assay (also referred to as Gal4 assay). The FP assay is an in vitro assay monitoring binding within the ligand binding pocket. The RORγ and the Th17 assays (another suitable assay) are both cell-based assays monitoring functional activity of the compound assayed.
Fluorescence Polarization (FP) Assay
The total volume was 25 μl, in a black Perkin Elmer OptiPlate. As negative control, 1 μl DMSO was used. […] The probe is a fluorescently labeled (TAMRA) RORγt ligand identified by Nuevolution with a total molecular weight of 910 g/mole as shown in Graph A in FIG. 1.

[2] = molecular target: T2, ligand binding domain of human RORγ (Homo sapiens, UniProt P51449); assay: RORγ Reporter Assay (Gal4); type: cell-based
T2 construct: host or cells: HEK293t
T2 sequence (P51449 269-508 limits assumed): T1 sequence (P51449 269-508 limits assumed)
Description: as §1
RORγ Reporter Assay (Gal4)
Cell-based RORγ functional assays were performed using a commercially available assay product (INDIGO Biosciences, State College, Pa., USA; product # IB04001). The RORγ reporter cells are HEK293t cells transfected with one vector that provides high level constitutive expression of a hybrid protein comprised of the yeast Gal4-DNA binding domain fused to the ligand binding domain of human RORγ, and a second vector comprising the firefly luciferase cDNA functionally linked to the upstream activation sequence (UAS) of yeast Gal4. A suspension of RORγ Reporter Cells was prepared using the protocol and culture medium provided in the kit product, and 100 μl of the Reporter Cell suspension was then dispensed into wells of a white, collagen-treated, 96-well assay plate. Concentrated stocks of test compounds were prepared in DMSO, then further diluted using media provided in the kit to generate ‘2×-concentration’ treatment media. 100 μl of medium for each respective treatment concentration dispensed into triplicate assay wells, thereby combining with the reporter cells. All media formulations contained 10% charcoal stripped Fetal Bovine Serum, but are otherwise proprietary to INDIGO Biosciences. Final treatment concentrations for each test compound were 1,000 nM and 100 nM, each with 0.1% residual DMSO. Separate control treatments were media supplemented with vehicle only (0.1% DMSO) to determine the constitutive level of RORγ activity in the reporter cells, and the reference inverse-agonist ursolic acid (f.c. 6,000 nM to 8.2 nM in 3-fold decrements) to establish a positive control inverse-agonist dose response. Assay plates were placed in a 37° C., 5% CO2, 85% humidity incubator for 24 hour. Treatment media were then discarded, 100 μl of luciferase detection reagent was added to each well, and relative light units (RLUs) were quantified from each assay well using a plate reading luminometer. Values of average RLU+/−standard deviation were computed for all treatment sets, followed by the calculations of fold-reduction: [Average RLUVehicle/Average RLUTest Cmpd]. Percent-reduction of RORγ activity in response to respective test compound treatments was calculated: [100*(1−[Ave RLUTest Cmpd/Ave RLUVehicle)] where the theoretical minimum reduction (0% reduction) derives from Vehicle treatment only, no treatment compound. In some aspects it may be of interest to provide compounds with selective modulation of RORγ for example compounds that are selective to RORγ over RORα, compounds that are selective for RORγ versus RORPβ, and compounds that are selective for RORγ versus BOTH RORα and RORPβ. It may also be of interest to provide compounds that are selective for RORγ versus further nuclear hormone receptors such as CAR1, FXR, GR, LXRα, LXRβ, PPARα, PXR, RARα, RXRα, TRα, VDR. It is apparent to those skilled in the art that these nuclear hormone receptors are merely examples, and that selectivity against other nuclear receptors may also be of interest. It may for example be of interest to provide compounds that modulate RORγ and one or more further nuclear hormone receptors, as well as compounds that modulate both RORγ and RORα, or RORγ and RORβ. It may also be of interest to provide compounds that modulate RORγ and BOTH RORα and RORP, as well as compounds that modulate both RORγ and one or more further nuclear hormone receptors such as CAR1, FXR, GR, LXRα, LXRβ, PPARα, PXR, RARα, RXRα, TRα, VDR. It is apparent to those skilled in the art that these nuclear hormone receptors are merely examples, and that modulation of even other nuclear receptors may also be of interest. […]

SMILES	IC50 [1]	also measured
Fc1c(NCc2ccsc2)ncnc1N(Cc1ccc(C(F)(F)F)cc1)C1CC1 [Example A21, N6-cyclopropyl-5-fluoro-N4-(3-thienylmethyl)-N6-[[4-(trifluoromethyl)phenyl]methyl] pyrimidine-4,6-diamine]	< 1000 nM	
COc1ccc(CNc2ncnc(N(Cc3ccc(C(F)(F)F)cc3)C3CC3)c2F)cn1 [Example A25, N6-cyclopropyl-5-fluoro-N4-[(6-methoxy-3-pyridyl)methyl]-N6-[[4-(trifluoromethyl)phenyl]methyl] pyrimidine-4,6-diamine]	< 500 nM	
CN(C)C(=O)C1(CNc2ncnc(N(Cc3ccc(C(F)(F)F)cc3)C3CC3)c2F)CCCC1 [Example A27, 1-[[[6-[cyclopropyl-[[4-(trifluoromethyl)phenyl]methyl]amino]-5-fluoro-pyrimidin-4-yl]amino]methyl]-N,N-dimethyl-cyclopentanecarboxamide]	< 1000 nM	
COC1(CNc2ncnc(N(Cc3ccc(C(F)(F)F)cc3)C3CC3)c2F)CCOCC1 [Example A29, N6-cyclopropyl-5-fluoro-N4-[(4-methoxytetrahydropyran-4-yl)methyl]-N6-[[4-(trifluoromethyl)phenyl]methyl] pyrimidine-4,6-diamine]	< 500 nM	
CS(=O)(=O)CC1(CNc2ncnc(N(Cc3ccc(C(F)(F)F)cc3)C3CC3)c2F)CCOCC1 [Example A31, N6-cyclopropyl-5-fluoro-N4-[[4-(methylsulfonylmethyl)tetrahydro-pyran-4-yl]methyl]-N6-[[4-(trifluoromethyl)phenyl]methyl] pyrimidine-4,6-diamine]	< 500 nM	
CC(C)C1CCC(CNc2ncnc(N(Cc3ccc(C(F)(F)F)cc3)C3CC3)c2F)CC1 (stereo not shown) [Example A33, N6-cyclopropyl-5-fluoro-N4-[(4-isopropylcyclohexyl)methyl]-N6-[[4-(trifluoromethyl)phenyl]methyl] pyrimidine-4,6-diamine]	< 500 nM	
O=S1(=O)CCC(CNc2ncnc(N(Cc3ccc(C(F)(F)F)cc3)C3CC3)c2F)CC1 [Example A34, N6-cyclopropyl-N4-[(1,1-dioxothian-4-yl)methyl]-5-fluoro-N6-[[4-(trifluoromethyl)phenyl]methyl] pyrimidine-4,6-diamine]	< 500 nM	
O=S1(=O)CCOC(CNc2ncnc(N(Cc3ccc(C(F)(F)F)cc3)C3CC3)c2F)C1 (stereo not shown) [Example A35, N6-cyclopropyl-N4-[(4,4-dioxo-1,4-oxathian-2-yl)methyl]-5-fluoro-N6-[[4-(trifluoromethyl)phenyl]methyl] pyrimidine-4,6-diamine]	< 500 nM	
COc1cc(CNc2ncnc(N(Cc3ccc(C(F)(F)F)cc3)C3CC3)c2F)ccn1 [Example A38, N4-cyclopropyl-5-fluoro-N6-[(2-methoxy-4-pyridyl)methyl]-N4-[[4-(trifluoromethyl)phenyl]methyl] pyrimidine-4,6-diamine]	< 500 nM	
N#Cc1ccc(CNc2ncnc(N(Cc3ccc(C(F)(F)F)cc3)C3CC3)c2F)cc1 [Example A39, 4-[[[6-[cyclopropyl-[[4-(trifluoromethyl)phenyl]methyl]amino]-5-fluoro-pyrimidin-4-yl]amino]methyl]benzonitrile]	< 500 nM	
CS(=O)(=O)CC1(CNc2ncnc(N(Cc3ccc(C(F)(F)F)cc3)C3CC3)c2F)CCOCC1 [Example A49, N6-cyclopropyl-5-fluoro-N4-[[4-(methylsulfonylmethyl)tetrahydro-pyran-4-yl]methyl]-N6-[[4-(trifluoromethyl)phenyl]methyl] pyrimidine-4,6-diamine]		inhibition at 1 µM ([2]; HEK-293T, 1 μM test compound, HEK293t RORγ reporter cells, 24 hour, read-out: Gal4 activity range @ 1 μM (% inhibition)): > 80%; Gal4 activity range @ 0.1 μM (% inhibition) ([2]; RORγ Reporter Assay (Gal4), HEK293t reporter cells, compound at 0.1 μM, values are activity range bounds): >80 % inhibition

The next lines start with results.

IC50 [1]	SMILES	also measured
< 500 nM	OCCC1(CNc2ncnc(N(Cc3ccc(C(F)(F)F)cc3)C3CC3)c2F)CCOCC1 [Example A22, 2-[4-[[[6-[cyclopropyl-[[4-(trifluoromethyl)phenyl]methyl]amino]-5-fluoro-pyrimidin-4-yl]amino]methyl]tetrahydropyran-4-yl]ethanol]	
< 500 nM	Fc1c(NCc2ccc(-c3nnn[nH]3)cc2)ncnc1N(Cc1ccc(C(F)(F)F)cc1)C1CC1 [Example A23, N6-cyclopropyl-5-fluoro-N4-[[4-(1H-tetrazol-5-yl)phenyl]methyl]-N6-[[4-(trifluoromethyl)phenyl]methyl] pyrimidine-4,6-diamine]	
< 500 nM	COc1ccc(CN(C)c2ncnc(N(Cc3ccc(C(F)(F)F)cc3)C3CC3)c2F)cn1 [Example A24, N6-cyclopropyl-5-fluoro-N4-[(6-methoxy-3-pyridyl)methyl]-N4-methyl-N6-[[4-(trifluoromethyl)phenyl]methyl] pyrimidine-4,6-diamine]	
< 500 nM	OCC1(CNc2ncnc(N(Cc3ccc(C(F)(F)F)cc3)C3CC3)c2F)COC1 [Example A26, [3-[[[6-[cyclopropyl-[[4-(trifluoromethyl)phenyl]methyl]amino]-5-fluoro-pyrimidin-4-yl]amino]methyl]oxetan-3-yl]methanol]	
< 1000 nM	Fc1c(NCC2CCCS2)ncnc1N(Cc1ccc(C(F)(F)F)cc1)C1CC1 (stereo not shown) [Example A28, N6-cyclopropyl-5-fluoro-N4-(tetrahydrothiophen-2-ylmethyl)-N6-[[4-(trifluoromethyl)phenyl]methyl] pyrimidine-4,6-diamine]	
< 500 nM	OC1(CNc2ncnc(N(Cc3ccc(C(F)(F)F)cc3)C3CC3)c2F)CCSCC1 [Example A30, 4-[[[6-[cyclopropyl-[[4-(trifluoromethyl)phenyl]methyl]amino]-5-fluoro-pyrimidin-4-yl]amino]methyl]tetrahydrothiopyran-4-ol]	
< 500 nM	CC1CCC(CNc2ncnc(N(Cc3ccc(C(F)(F)F)cc3)C3CC3)c2F)CC1 (stereo not shown) [Example A32, N6-cyclopropyl-5-fluoro-N4-[(4-methylcyclohexyl)methyl]-N6-[[4-(trifluoromethyl)phenyl]methyl] pyrimidine-4,6-diamine]	
< 500 nM	O=C(O)CC1CCC(CNc2ncnc(N(Cc3ccc(C(F)(F)F)cc3)C3CC3)c2F)CC1 (stereo not shown) [Example A36, 2-[4-[[[6-[cyclopropyl-[[4-(trifluoromethyl)phenyl]methyl]amino]-5-fluoro-pyrimidin-4-yl]amino]methyl]cyclohexyl]acetic acid]	
< 500 nM	CS(=O)(=O)Cc1ccc(CNc2ncnc(N(Cc3ccc(C(F)(F)F)cc3)C3CC3)c2F)cc1 [Example A37, N4-cyclopropyl-5-fluoro-N6-[[4-(methylsulfonylmethyl)phenyl]methyl]-N4-[[4-(trifluoromethyl)phenyl]methyl] pyrimidine-4,6-diamine]	
< 1000 nM	Fc1c(NCc2ccccc2)ncnc1N(Cc1ccc(C(F)(F)F)cc1)C1CC1 [Example A40, N6-benzyl-N4-cyclopropyl-5-fluoro-N4-[[4-(trifluoromethyl)phenyl]methyl] pyrimidine-4,6-diamine]	
